We go through 7 molecules from patent US7279500B2, “Sulfonamide cannabinoid agonists and antagonists” (Virginia Commonwealth University, priority 2002, dated 2007).

Read-outs that look alike come from different tables or passages of the source. A value given as a limit tells only on which side of the number the result lay.

One experiment deals with CB2 receptor (Homo sapiens, UniProt P34972). As to the kind of experiment: CB2 receptor affinity assay. The class given is binding. How it is done:
(§1) Mouse Tetrad and CB1 and CB2 receptor Affinity. The mouse tetrad and CB1 and CB2 receptor affinity assays were carried out as previously described in Wiley, J. L., Beletskaya, I. D., Ng, E. W., Dai, Z., Crocker, P. J., Mahadevan, A, Razdan, R. K., Martin, B. R., Resorcinols derivatives: a novel template for the delevopment of cannabinoid CB1/CB2 and CB2-selective agonists. J. Pharmacol. Exp. Ther. 301: 679-689, 2002.
(§2) The incorporation of sulfonaminde moieties is known to impart antagonistic activity in some classes of compounds. There is precedent for sulfonamide derivatives to show potent antagonist activity in peptidoleukotrienes (see for example, Matassa et al., J. Med. Chem. 1990, 33, 2621-2629; Jacobs et al., J. Med. Chem. 1993, 36, 394-409). In the development of the present invention, a sulfonamide moiety, SO2R, in which the identity of R was varied, was incorporated into the terminal position of a tetrahydrocannabinol (THC) side chain, which was also varied (saturated or unsaturated) as described above. The resulting compounds were tested for CB1 and CB2 receptor binding affinity, and cannabinoid agonist and antagonist properties using the mouse tetrad test, as described in Materials and Methods.

Experiment [1] concerns the target CB1 receptor (UniProt P21554). As to the kind of experiment: CB1 receptor affinity assay. In kind it is binding. Particulars: for Kd: read-out: CB1KD. How it is done:
as §1, §2

The subject of another experiment is mice. As to the kind of experiment: Mouse tetrad test (sedation, analgesia, hypothermia) following i.v. administration. The class given is in vivo. The conditions noted are these: for ED50: iv. How it is done:
as §1, §2
The compounds were tested for their CB1 and CB2 receptor binding ability, and their cannabinoid agonist and antagonist properties.

Experiment [2] addresses T1, CB1 receptor (Rattus norvegicus, UniProt P20272). As to the kind of experiment: GTPγS binding in rat brain membranes, compound alone (inverse agonism). The conditions noted are these: for GTPγS stimulation (1 μM): rat brain membranes. In kind it is biochemical. The arrangement: from tissue; host or cells: rat brain membranes. From the text: FIG. 2. Compound O-2050 lacks inverse agonism in GTPγS binding in rat brain membranes. X axis, concentration of O-2050 (M); Y axis, % stimulation of GTPγS binding.
In order to determine whether O-2050 had inverse agonist properties, the compound was examined alone in the GTPγS binding assay. […] The performance of O-2050 in this assay in comparison to two other compounds with unsaturated side chains and varying R groups (O-1991, R=ethyl, and O-1993, R=butyl) are given in Table 3.
Background: GTPγS is a poorly hydrolysed GTP analogue; its binding reports G protein activation.

For experiment [3], the target named is T1, CB1 receptor. As to the kind of experiment: Block of CP 55,940-stimulated GTPγS binding in rat brain tissue. The class given is biochemical. The arrangement: from tissue; host or cells: rat brain tissue. How it is done: FIG. 1. Compound O-2050 blocks CP 55,940 stimulation of GTPγS binding. O-2050 was tested for its ability to block stimulation of GTPγS binding by CP 55,940. […], log concentration of O-2050; Y axis, % stimulation by CP 55,940.
The above properties of O-2050 are indicative of an antagonist. Therefore, the ability of O-2050 to block the agonist effects of CP 55,940, a highly efficacious cannabinoid, in the in vitro GTPγS binding assay in rat brain tissue was tested. The assay is an in vitro functional measure of CB1 receptor activation.

The target in experiment [4] is T2, CB1 receptor (Mus musculus, UniProt P47746).
T2 construct: O-2050 behaves as a CB1 receptor antagonist at naturally expressed CB1 receptors; from tissue; host or cells: mouse vas deferens
T2 sequence (P47746 whole entry): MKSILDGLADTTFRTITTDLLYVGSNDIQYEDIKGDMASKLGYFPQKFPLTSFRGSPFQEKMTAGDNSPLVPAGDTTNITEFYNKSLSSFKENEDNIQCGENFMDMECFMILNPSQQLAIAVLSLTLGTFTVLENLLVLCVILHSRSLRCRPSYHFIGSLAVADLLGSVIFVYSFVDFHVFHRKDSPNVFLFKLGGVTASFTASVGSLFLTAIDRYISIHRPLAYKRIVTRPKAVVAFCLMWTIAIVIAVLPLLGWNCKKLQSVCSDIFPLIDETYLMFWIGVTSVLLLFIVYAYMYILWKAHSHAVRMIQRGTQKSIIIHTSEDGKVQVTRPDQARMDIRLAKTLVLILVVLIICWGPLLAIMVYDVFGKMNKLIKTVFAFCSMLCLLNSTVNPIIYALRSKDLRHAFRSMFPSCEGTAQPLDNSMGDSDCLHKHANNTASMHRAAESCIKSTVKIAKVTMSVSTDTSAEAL
As to the kind of experiment: Antagonism of WIN 55,212-2 inhibition of electrically induced contractions of mouse vas deferens. In kind it is cell-based. The procedure: FIG. 3. Compound O-2050 antagonism of WIN 55,212-2 in mouse vas deferens. X axis, concentration of WIN 55,212-2; Y axis, % inhibition of WIN 55,212-2 activity (mean % inhibition±standard error [s.e.] of the mean). Open circles=vehicle control (WIN 55212-2 added after pretreatment with dimethylsulfoxide (DMSO), the solvent in which the O-2050 was dissolved; open triangles: 1 nM O-2050 (WIN 55,212-2 added after pretreatment with 1 nM O-2050); filled circles: 10 nM O-2050 (WIN 55,212-2 added after pretreatment with 10 nM O-2050); filled triangles: 31.62 nM O-2050 (WIN 55,212-2 added after pretreatment with 31.62 nM O-2050); filled squares: 100 nM O-2050 (WIN 55,212-2 added after pretreatment with 100 nM O-2050.
These observations were extended by examining O-2050 in the mouse vas deferens, a smooth muscle preparation that is regulated by the cannabinoid system.

For experiment [5], the system named is mouse vas deferens. Put plainly: Mouse vas deferens, compound alone (inverse agonism). Particulars: up to 1000 nM. The class given is cell-based. From the text: FIG. 4. Compound O-2050 lacks inverse agonism in GTPγS binding in mouse vas deferens. Y axis, % enhancement±s.e. (standard error of the mean) of GTPγS binding in mouse vas deferens by O-2050 at the indicated concentrations.
In order to determine whether O-2050 has inverse agonist properties in the mouse vas deferens, the compound was examined alone in this tissue preparation. […] O-2050 therefore differs from the putative inverse agonist, SR141716A, which does enhance the amplitude of these contractions in this bioassay system (e.g. see Pertwee et al., 1996, Eur. J. Pharmacol. 315: 195-201). […] Therefore, O-2050 lacks inverse agonist properties in yet another system that is regulated by the cannabinoids.

For experiment [6], the system named is mouse vas deferens. The conditions noted are these: literature, Pertwee et al. 1996; cited from earlier work.
Where [7] appears, read: mouse tetrad, i.v. administration, read-out: Analgesia ED50.
The mark [8] stands for this setting: mouse tetrad, i.v. administration, read-out: Sedation ED50.
The mark [9] stands for this setting: mouse tetrad, i.v. administration, read-out: Temperature (hypothermia) ED50.
[10] abbreviates: mouse tetrad, i.v. administration.

Sequence of CB2 receptor (P34972 whole entry): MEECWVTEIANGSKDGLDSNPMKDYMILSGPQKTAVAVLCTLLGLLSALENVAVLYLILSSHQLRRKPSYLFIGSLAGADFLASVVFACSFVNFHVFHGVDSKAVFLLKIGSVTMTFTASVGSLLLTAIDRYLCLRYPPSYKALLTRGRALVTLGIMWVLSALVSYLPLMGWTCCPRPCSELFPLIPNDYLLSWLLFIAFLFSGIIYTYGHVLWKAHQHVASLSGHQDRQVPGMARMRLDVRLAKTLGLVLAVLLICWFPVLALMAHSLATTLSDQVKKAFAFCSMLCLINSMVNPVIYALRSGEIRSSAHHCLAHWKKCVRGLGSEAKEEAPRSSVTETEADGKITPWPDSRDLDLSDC
T1 sequence (P20272 whole entry): as the sequence (P47746 whole entry) above, with D95E counted along it

Usually ED50 stands for the dose at which the effect has come halfway, by size or by number of responders. In the case of `CCS(=O)(=O)NCCCC#CCc1cc(O)c2c(c1)OC(C)(C)C1CC=C(C)CC21` (stereo not shown) [Compound O-1991, 3-Norpentyl 3-(6-ethanesulfamidohex-2-yne-yl)-Δ^8-tetrahydrocannabinol], on CB2 receptor, the “CB2 receptor affinity (in words)” value is given as “high affinity” and the Kd amounted to 1.4 ± 0.2 nM. Moreover, on CB1 receptor [1], the “CB1 receptor affinity (in words)” value is “moderate affinity” and the Kd was 20 ± 13 nM. In the experiment with mice (i.v. administration), the “Agonist potency in mouse tetrad test (in words)” value (shortened to “Agonist potency”) is reported as “moderate to low pharmacological agonist potency”. In addition, in the experiment with mice (setting [7]), the 50% effective dose (ED50) is 0.9 mg/kg. In addition, the ED50 in the experiment with mice (setting [8]) was 1.7 mg/kg. In addition, the 50% effective dose (ED50) in the experiment with mice (setting [9]) is 0.8 mg/kg. On CB1 receptor [2], the “Negative stimulation of GTPγS binding / agonist character (in words)” value is given as “weak agonists” and the “GTPγS stimulation (1 μM)” value turned out to be 29%.

As to `CCCCS(=O)(=O)NCCCC#CCc1cc(O)c2c(c1)OC(C)(C)C1CC=C(C)CC21` (stereo not shown) [Compound O-1993], at CB2 receptor, the “CB2 receptor affinity (in words)” value is “only moderate affinity” and the Kd worked out at 86 ± 7 nM. For the same molecule, on CB1 receptor [1], the “CB1 receptor affinity (in words)” value is “moderate affinity” and the Kd worked out at 70 ± 10 nM. The “Agonist potency” value with mice (i.v. administration) is listed as “moderate to low pharmacological agonist potency”. The median effective dose (ED50) in the experiment with mice (setting [7]) was 14 mg/kg. In the experiment on mice (setting [8]), the ED50 is 7.6 mg/kg. For the same molecule, the median effective dose (ED50) in the experiment with mice (setting [9]) is 12 mg/kg. For the same molecule, on CB1 receptor [2], the “Negative stimulation of GTPγS binding / agonist character (in words)” value is given as “weak agonists” and the “GTPγS stimulation (1 μM)” value is listed as 30%.

In the case of `CC1=CCC2C(C1)c1c(O)cc(C(C)(C)CCCCNS(=O)(=O)c3ccccc3)cc1OC2(C)C` (stereo not shown) [Compound O-2048, 1,1-Dimethyl-5-phenylsulfamido-Δ^8-tetrahydrocannabinol], the “CB2 receptor affinity (in words)” value on CB2 receptor was “high affinity”. Moreover, the “CB1 receptor affinity (in words)” value on CB1 receptor [1] is recorded as “high affinity”. In addition, the Kd at CB1 receptor [1] stood at 4.1 ± 0.4 nM. Also, in the experiment with mice (i.v. administration), the “Agonist potency” value was “potent cannabinoid agonists”. For the same molecule, the median effective dose (ED50) worked out at 2.8 mg/kg in the experiment with mice (setting [7]), 0.3 mg/kg with mice (setting [8]) and 5.6 mg/kg with mice (setting [9]).

As for `CC1=CCC2C(C1)c1c(O)cc(CC#CCCCNS(C)(=O)=O)cc1OC2(C)C` (stereo not shown) [Compound O-2050, 3-Norpentyl-3-(6-methanesulfamidohex-2-yne-yl)-Δ^8-tetrahydrocannabinol], on CB2 receptor, the “CB2 receptor affinity (in words)” value is listed as “high affinity”. The Kd on CB2 receptor came to 0.2 ± 0.06 nM; on CB1 receptor [1], 2.5 ± 0.4 nM. The “CB1 receptor affinity (in words)” value on CB1 receptor [1] was “high affinity”. Besides, the ED50 with mice (setting [7]) was above 30 mg/kg; with mice (setting [8]) it was 4.3 mg/kg; in the experiment with mice (setting [9]), above 30 mg/kg. For the same molecule, the “Sedation (in words)” value in the experiment on mice (mouse tetrad) is given as “only weakly active”. In addition, the “Analgesia ED50” value in the experiment on mice (setting [10]) is recorded as above 30 mg/kg. Besides, the “Temperature (hypothermia) ED50” value in the experiment on mice (setting [10]) is listed as above 30 mg/kg. Also, the Kb at CB1 receptor [3] and on CB1 receptor [4] was 1 nM each time. Besides, the “Dextral Shift of WIN 55,212-2 log concentration-response curve” value at CB1 receptor [4] (1 nM O-2050) was 2.8; at CB1 receptor [4] (10 nM O-2050) it was 7.5; at CB1 receptor [4] (20 nM O-2050), 15; on CB1 receptor [4] (100 nM O-2050), 104. For the same molecule, the “Negative stimulation of GTPγS binding / agonist character (in words)” value on CB1 receptor [2] is “failed to produce negative stimulation”. Besides, the “GTPγS stimulation (1 μM)” value at CB1 receptor [2] is 11%. In the experiment on mouse vas deferens [5], the “Enhancement of amplitude of electrically-evoked contractions” value is “did not enhance”.

On to `CCS(=O)(=O)NCCCCC(C)(C)c1cc(O)c2c(c1)OC(C)(C)C1CC=C(C)CC21` (stereo not shown) [Compound O-2113, 1,1-Dimethyl-5-ethanesulfamido-Δ^8-tetrahydrocannabinol], for which the “CB2 receptor affinity (in words)” value at CB2 receptor is listed as “high affinity”. For the same molecule, at CB1 receptor [1], the “CB1 receptor affinity (in words)” value is reported as “high affinity”. Further, the Kd at CB1 receptor [1] was found to be 1.7 ± 0.3 nM. Also, the “Agonist potency” value in the experiment with mice (i.v. administration) is “potent cannabinoid agonists”. The ED50 worked out at 0.3 mg/kg in the experiment on mice (setting [7]), 0.4 mg/kg in the experiment on mice (setting [8]) and 1.4 mg/kg in the experiment with mice (setting [9]).

For the molecule `Cc1c(C(=O)NN2CCCCC2)nn(-c2ccc(Cl)cc2Cl)c1-c1ccc(Cl)cc1` [SR141716A], the “Enhancement of amplitude of electrically-evoked contractions” value with mouse vas deferens [6] was “does enhance”.

On to `CCCCCc1cc(O)c2c(c1)OC(C)(C)[C@@H]1CCC(C)=C[C@@H]21` [THC, reference compound], for which the “GTPγS stimulation (1 μM)” value on CB1 receptor [2] came to 15%.
